Assays:
[1] = tested on: indomethacin-induced gastric ulcer; experiment: Inhibitory effect on indomethacin-induced gastric ulcer; type: in vivo, SD rats; conditions: 30 mg/kg oral, 30 min before indomethacin
Experimental: Inhibitory effect on indomethacin-induced gastric ulcer
Male SD rats of 7-week age were fasted for 24 hours, with a fast of water beginning in early morning of the day when the experiments were performed. The rats were classified into groups each consisting of eight rats, such that all the groups have substantially the same average weight. Before giving indomethacine to the rats, the compounds of the Examples indicated in TABLE 5 were orally administered as specimen drugs to the rats, with a dose of 30 mg/kg. Thirty minutes later, indomethacin was orally administered to each specimen rat, with a dose of 25 mg/kg (1 mL/rat). Seven hours later, the specimen rats were sacrificed by ether, and the gastric mucosa of each rat was semi-fixed with 2% formalin. The longitudinal length of the damaged area of gastric mucosa was measured, and the anti-ulcer percent values of the individual specimen drugs were calculated on the basis of the sum of the measured length values of each group of specimen rats, in the same manner as in EXAMPLE 19.

wound in rat = experiment: Healing effect on wound in rat; type: in vivo, SD rats; conditions: TABLE 7, 15 days; for Healing days: control 15.1 ± 0.22; for Healing Index: control 188.3 ± 18.2
Experimental: Healing Effect on wound in rat
Male 7-week SD rats were classified into groups each consisting of 6-7 rats, such that all the groups have substantially the same average weight. The experiment was performed on the rats according to a method of Tsurumi et al. (Oyo Yakuri, Vol. 7, pp833, 1973). Initially, the rats were subjected to an anesthesia with pentobarbital. The hair of the back of each rat was clipped, and the skin was disinfected with 70% ethanol. Then, the skin was lightly pulled and punched off in a direction from the right to the left by means of a punch whose diameter is 10 mm, so as to form two open wounds on portions of the back of the rat which are symmetrical to each other with respect to the center line of the back. The compounds of Examples indicated in the following TABLES 7 and 8 were used as specimen drugs, and orally administered once a day to each of the rats with doses indicated in the TABLES 7 and 8. The oral administration continued for 15 consecutive days, beginning from the first day when the wounds were formed on the back of each rat.
To clarify the healing effect on the wounds, an Healing Index and healing days were obtained in the following manner. Initially, the lengths of a major axis and a minor axis of each wound formed on the back were measured using calipers. On the basis of the measured length values, the area of each wound was calculated as the area of an ellipse. The Healing Index was obtained according to a method of Nakano et al. (Oyo Yakuri, Vol. 47, pp29, 1994). Described more specifically, a ratio of area of each wound was chronologically represented in a graph, and an area of the lower part of a curve in the graph during a period from the fifth day to the fifteenth day after the wounds were formed was obtained as the Healing Index. […] The healing days were obtained as the number of the days that were required for the wounds to be completely covered with regenerated epidermises. As for the wound that was healed in more than 15 days, the healing days were obtained as 16 days.

[2] = Single-dose toxicity study; type: in vivo; conditions: mouse, in vivo, oral, male ddY mice, two weeks
ddY mice = experiment: Single-dose toxicity study; type: in vivo; conditions: oral, male ddY mice, two weeks
[3] = tested on: acetic acid-induced gastric ulcer; experiment: Healing effect on acetic acid-induced gastric ulcer of rat; type: in vivo, Donryu rat; conditions: 25 mg/kg oral two times a day, 10 days
Experimental: Healing effect on acetic acid-induced gastric ulcer of rat
A male Donryu rat of 7-week age was subjected to abdominal incision to expose the stomach, with pentobarbital used as an anesthesia. Using a metal ring having an inside diameter of 10 mm, 200 μL of glacial acetic acid was applied, for 60 seconds, with a serosa-side of a boundary area between the antrum and the corps. The abdomen of the specimen rat subjected to the glacial acetic acid was closed by an operation, and the rat was then fed in a normal way. The compound prepared in Example 2, that is, 2-(2-dimethylaminobenzylsulfinyl)-5,5-dimethylimidazoline-4-thione was used as the specimen drug. This compound was orally administered to the specimen rat two times a day (at 9:00 a.m. and 5:00 p.m.), each time with a dose of 25 mg/kg, beginning on the day following the day on which the glacial acetic acid was applied to the rat. The oral administration continued for 10 consecutive days, with a total of 20 administrations. On the day following the last day of the administration, the specimen rat was sacrificed by ether, and the ulcer portion of the rat was semi-fixed with formalin. The surface area of the ulcer portion was measured. The healing percent (%) calculated on the basis of the measured surface area was 40.8%.

[4] = tested on: hydrochloric acid-ethanol-induced gastric ulcer; experiment: Inhibitory effect on hydrochloric acid-ethanol-induced gastric ulcer; type: in vivo, SD rats; conditions: 30 mg/kg oral, 30 min before hydrochloric acid-ethanol
Experimental: Inhibitory effect on hydrochloric acid-ethanol-induced gastric ulcer
Male SD rats of 7-week age were fasted for 24 hours, with a fast of water beginning in early morning of the day when the experiments were performed. The rats were classified into groups each consisting of five rats, such that all the groups have substantially the same average weight. Before giving hydrochloric acid-ethanol to the rats, the compounds of the Examples indicated in TABLE 4 were orally administered as specimen drugs to the rats, with a dose of 30 mg/kg. Thirty minutes later, 1 mL of 98% ethanol containing 200 mM of hydrochloric acid was orally administered to each specimen rat. One hour later, the specimen rats were sacrificed by ether, and the gastric mucosa of each rat was semi-fixed with 2% formalin. The longitudinal length of the damaged area of the gastric mucosa was measured, and the anti-ulcer percent values of the individual specimen drugs were calculated on the basis of the sum of the measured length values of each group of the specimen rats, in the same manner as in Example 19.

[5] = tested on: gastric acid secretion in a pylorus ligated rat; experiment: Inhibitory effect on the gastric acid secretion in a pylorus ligated rat; type: in vivo, SD rats; conditions: 10 mg/kg intraduodenal; 4 hours
Experimental: Inhibitory effect on the gastric acid secretion in a pylorus ligated rat Male 7-week SD rats were fasted for 24 hours, with a fast of water beginning in early morning of the day when the experiments were performed. The rats were classified into groups each consisting of five rats, such that all the groups have substantially the same average weight. The experiments were performed according to a method of Shay et. al. (Shay, H. et. al., Gastroenterology, Vol. 5, pp43, 1945). Described more specifically, each of the rats was subjected to a light anesthesia by ether, and the hair of the abdomen of each rat was clipped. Then, the abdomen was incised over a length of 1.5 cm along the center line downwards from a portion 1 cm below the xiphoid of the rat, and the stomach was taken out of the body. A portion connecting the pylorus and the duodenum was ligated by suturing thread. […] After the administration, the skin of the abdominal muscle and abdomen was sutured. The rats were kept in cages and fasted for 4 hours with a fast of water. Then, the rats were sacrificed by ether, and the stomach of each rat was removed. The gastric content was obtained from a small hole formed through the stomach of each rat and was collected in a test tube. […] An amount of supernatant was measured as a volume of gastric acid, and a total acidity of the gastric acid was also measured. A volume of gastric acid inhibitory percent (%) and a total acidity inhibitory percent (%) were calculated in the same manner as the ulcer inhibitory percent was calculated. The total acidity was obtained as a product of the amount of gastric acid secreted for 4 hours and the acidity per 1 mL of the gastric acid which was subjected to neutralization titration by an aqueous solution of 0.01N sodium hydroxide.

[6] = tested on: water-immersion restraint stress-induced gastric ulcer; experiment: Inhibitory effect on water-immersion restraint stress-induced gastric ulcer; type: in vivo, SD rats; conditions: 10 mg/kg oral, 30 min before stress
Experimental: Inhibitory effect on water-immersion restraint stress-induced gastric ulcer
Male 7-week SD rats were fasted for 24 hours, with a fast of water beginning in early morning of the day when the experiments were performed. The rats were classified into groups each consisting of five rats, such that all the groups have substantially the same average weight. Thirty minutes before giving a stress to the rats, the compounds of the Examples indicated in TABLE 3 were orally administered as specimen drugs to the rats, with a dose of 10 mg/kg. The rats were then kept in stress cages, and were given a stress by immersing the cages in a water bath kept at a substantially constant temperature of 23°±1° C., such that the water level was at the height of the xiphoid of the rats. Seven hours later, the specimen rats were sacrificed by ether, and the gastric mucosa of each rat was semi-fixed with 2% formaline. The longitudinal length of the damaged area of the gastric mucosa was measured. A sum of the measured length values of the rats of each group was calculated as an ulcer index. An anti-ulcer or ulcer inhibitory percent (%) was calculated as {1-(ulcer index of each group of specimen rats)/(ulcer index of non-specimen group)}×100.

Compound | Inhibitory Percent (ulcer) [1] [%] | Healing days (wound in rat; 50 mg/kg oral once a day) [days] | Healing Index (wound in rat; 50 mg/kg oral once a day) | Healing days (wound in rat; 100 mg/kg oral once a day) [days] | Healing Index (wound in rat; 100 mg/kg oral once a day) | LD50 at 336 h [2] [mg/kg] | LD50 95% confidence limits (ddY mice) [mg/kg] | healing percent (ulcer surface area) [3] [%] | Inhibitory Percent (ulcer) [4] [%] | Total acidity Inhibitory percent [5] [%] | Volume of Gastric acid Inhibitory percent [5] [%] | Inhibitory Percent (ulcer) [6] [%]
CN(C)c1ccccc1C[S+]([O-])C1=NC(C)(C)C(=S)N1 (stereo not drawn) [Example 2, 2-(2-dimethylaminobenzylsulfinyl)-5,5-dimethylimidazolin-4-thione] | 100 | 13.8 ± 0.39 | 153.0 ± 13.2 | 14.6 ± 0.44 | 146.7 ± 12.4 | 952 | 791 to 1138 | 40.8 | – | – | – | –
CC1(C)N=C([S+]([O-])Cc2cccc3cccnc23)NC1=S (stereo not drawn) [Example 4, 2-(8-quinolinylmethylsulfinyl)-5,5-dimethylimidazolin-4-thione] | – | – | – | – | – | – | – | – | 90.3 | – | – | –
CCN(C)c1ccccc1C[S+]([O-])C1=NC(C)(C)C(=S)N1 (stereo not drawn) [Example 15, 2-(2-N-ethyl-N-methylaminobenzylsulfinyl)-5,5-dimethylimidazolin-4-thione] | 99.2 | – | – | – | – | – | – | – | 97.4 | 91.3 | 60.1 | 99.9
CCC1(C)N=C([S+]([O-])Cc2ccccc2N(C)C)NC1=S (stereo not drawn) [Example 16, 2-(2-dimethylaminobenzylsulfinyl)-5-ethyl-5-methylimidazolin-4-thione] | 97.2 | – | – | – | – | – | – | – | 98.6 | 77.4 | 41.6 | –
